Experiments:
[1] = target: FLT4 (Homo sapiens, UniProt P35916); assay: biochemical; conditions: read-out: FLT4 inhibition
[2] = target: CSK (Homo sapiens, UniProt P41240); conditions: 1 µM, ATP at Km
[3] = target: DAPK1 (Homo sapiens, UniProt P53355); conditions: 1 µM, ATP at Km
[4] = target: EGFR (Homo sapiens, UniProt P00533); conditions: 1 µM, ATP at Km
[5] = target: EPHA2 (Homo sapiens, UniProt P29317); conditions: 1 µM, ATP at Km
[6] = target: EPHA5 (Homo sapiens, UniProt P54756); conditions: 1 µM, ATP at Km
[7] = target: EPHB2 (Homo sapiens, UniProt P29323); conditions: 1 µM, ATP at Km
[8] = target: FES (Homo sapiens, UniProt P07332); conditions: 1 µM, ATP at Km
Sequence of FES (P07332 whole entry): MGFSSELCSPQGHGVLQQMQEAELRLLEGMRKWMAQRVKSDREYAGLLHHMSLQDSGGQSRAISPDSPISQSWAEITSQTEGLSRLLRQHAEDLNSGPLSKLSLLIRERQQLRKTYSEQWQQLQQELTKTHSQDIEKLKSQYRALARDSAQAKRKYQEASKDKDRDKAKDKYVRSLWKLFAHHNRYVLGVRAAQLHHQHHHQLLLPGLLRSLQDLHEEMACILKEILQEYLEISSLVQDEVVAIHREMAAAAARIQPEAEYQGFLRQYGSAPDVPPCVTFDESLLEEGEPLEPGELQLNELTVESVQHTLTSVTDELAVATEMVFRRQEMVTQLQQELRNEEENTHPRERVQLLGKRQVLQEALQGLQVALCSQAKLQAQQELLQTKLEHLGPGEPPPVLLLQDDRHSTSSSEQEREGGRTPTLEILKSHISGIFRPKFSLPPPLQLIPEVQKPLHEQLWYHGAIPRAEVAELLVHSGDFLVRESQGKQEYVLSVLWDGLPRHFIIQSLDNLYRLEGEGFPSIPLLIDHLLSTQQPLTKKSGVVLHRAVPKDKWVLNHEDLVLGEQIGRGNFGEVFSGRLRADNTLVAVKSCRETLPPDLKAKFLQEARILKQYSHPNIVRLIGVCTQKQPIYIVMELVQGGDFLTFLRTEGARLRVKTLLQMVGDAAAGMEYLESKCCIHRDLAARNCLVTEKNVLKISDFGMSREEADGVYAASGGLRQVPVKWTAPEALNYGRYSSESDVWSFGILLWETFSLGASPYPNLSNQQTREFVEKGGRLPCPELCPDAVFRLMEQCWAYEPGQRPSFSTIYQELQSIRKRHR

[9] = target: FGR (Homo sapiens, UniProt P09769); conditions: 1 µM, ATP at Km
[10] = target: FLT1 (Homo sapiens, UniProt P17948); conditions: 1 µM, ATP at Km
Sequence of FLT1 (P17948 27-1338): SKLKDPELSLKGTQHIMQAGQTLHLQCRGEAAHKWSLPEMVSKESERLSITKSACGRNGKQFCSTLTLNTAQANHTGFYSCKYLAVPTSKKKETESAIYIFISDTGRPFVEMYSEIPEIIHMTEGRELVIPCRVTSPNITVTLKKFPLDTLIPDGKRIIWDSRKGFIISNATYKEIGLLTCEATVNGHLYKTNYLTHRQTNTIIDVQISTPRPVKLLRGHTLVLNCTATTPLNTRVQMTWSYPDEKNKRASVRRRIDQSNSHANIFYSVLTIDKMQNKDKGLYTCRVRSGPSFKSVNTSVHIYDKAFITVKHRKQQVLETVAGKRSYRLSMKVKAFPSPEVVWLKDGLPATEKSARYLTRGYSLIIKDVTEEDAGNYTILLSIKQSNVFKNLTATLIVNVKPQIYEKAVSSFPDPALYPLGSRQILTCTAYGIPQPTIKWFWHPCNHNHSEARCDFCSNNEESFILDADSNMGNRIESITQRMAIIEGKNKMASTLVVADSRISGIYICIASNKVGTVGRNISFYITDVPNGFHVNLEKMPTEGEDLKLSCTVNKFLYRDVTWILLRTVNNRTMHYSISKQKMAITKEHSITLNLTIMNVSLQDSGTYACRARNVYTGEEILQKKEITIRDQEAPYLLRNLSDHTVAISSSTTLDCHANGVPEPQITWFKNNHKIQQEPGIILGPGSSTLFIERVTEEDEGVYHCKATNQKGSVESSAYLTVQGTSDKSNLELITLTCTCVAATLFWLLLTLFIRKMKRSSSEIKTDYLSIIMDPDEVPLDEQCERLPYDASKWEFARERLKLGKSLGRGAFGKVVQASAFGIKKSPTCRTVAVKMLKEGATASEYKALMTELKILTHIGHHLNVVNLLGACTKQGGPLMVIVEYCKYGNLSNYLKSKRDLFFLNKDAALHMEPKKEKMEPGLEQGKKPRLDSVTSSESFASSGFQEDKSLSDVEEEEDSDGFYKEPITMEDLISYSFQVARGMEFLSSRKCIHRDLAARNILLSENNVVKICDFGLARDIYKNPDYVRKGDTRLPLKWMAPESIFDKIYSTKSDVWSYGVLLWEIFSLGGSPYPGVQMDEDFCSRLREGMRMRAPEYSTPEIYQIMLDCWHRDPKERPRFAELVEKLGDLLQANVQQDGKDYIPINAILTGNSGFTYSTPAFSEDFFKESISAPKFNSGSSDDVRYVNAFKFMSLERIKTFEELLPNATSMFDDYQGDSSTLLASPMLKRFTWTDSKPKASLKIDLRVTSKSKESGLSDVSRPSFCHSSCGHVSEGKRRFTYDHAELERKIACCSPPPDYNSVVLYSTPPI

[11] = target: IGF-1R (Homo sapiens, UniProt P08069); conditions: 1 µM, ATP at Km
[12] = target: JAK3 (Homo sapiens, UniProt P52333); conditions: 1 µM, ATP at Km
[13] = target: JNK1ALPHA1 (Homo sapiens, UniProt P45983); conditions: 1 µM, ATP at Km
[14] = target: LCK (Homo sapiens, UniProt P06239); conditions: LCK (first listing, page 9); 1 µM; ATP at Km
[15] = target: LYN (Homo sapiens, UniProt P07948); conditions: 1 µM, ATP at Km
[16] = target: MAPK1 (Homo sapiens, UniProt P27361); conditions: 1 µM, ATP at Km
[17] = target: MINK (Homo sapiens, UniProt Q8N4C8); conditions: 1 µM, ATP at Km
[18] = test system: MLCK; conditions: 1 µM, ATP at Km
[19] = target: MLK1 (Homo sapiens, UniProt P80192); conditions: 1 µM, ATP at Km
[20] = target: MSK2 (Homo sapiens, UniProt O75676); conditions: 1 µM, ATP at Km
[21] = target: NEK6 (Homo sapiens, UniProt Q9HC98); conditions: 1 µM, ATP at Km
[22] = target: PAK6 (Homo sapiens, UniProt Q9NQU5); conditions: 1 µM, ATP at Km
[23] = target: PKBGAMMA (Homo sapiens, UniProt Q9Y243); conditions: 1 µM, ATP at Km
[24] = target: PKCBETAI (Homo sapiens, UniProt P05771); conditions: 1 µM, ATP at Km
Sequence of PKCBETAI (P05771 whole entry): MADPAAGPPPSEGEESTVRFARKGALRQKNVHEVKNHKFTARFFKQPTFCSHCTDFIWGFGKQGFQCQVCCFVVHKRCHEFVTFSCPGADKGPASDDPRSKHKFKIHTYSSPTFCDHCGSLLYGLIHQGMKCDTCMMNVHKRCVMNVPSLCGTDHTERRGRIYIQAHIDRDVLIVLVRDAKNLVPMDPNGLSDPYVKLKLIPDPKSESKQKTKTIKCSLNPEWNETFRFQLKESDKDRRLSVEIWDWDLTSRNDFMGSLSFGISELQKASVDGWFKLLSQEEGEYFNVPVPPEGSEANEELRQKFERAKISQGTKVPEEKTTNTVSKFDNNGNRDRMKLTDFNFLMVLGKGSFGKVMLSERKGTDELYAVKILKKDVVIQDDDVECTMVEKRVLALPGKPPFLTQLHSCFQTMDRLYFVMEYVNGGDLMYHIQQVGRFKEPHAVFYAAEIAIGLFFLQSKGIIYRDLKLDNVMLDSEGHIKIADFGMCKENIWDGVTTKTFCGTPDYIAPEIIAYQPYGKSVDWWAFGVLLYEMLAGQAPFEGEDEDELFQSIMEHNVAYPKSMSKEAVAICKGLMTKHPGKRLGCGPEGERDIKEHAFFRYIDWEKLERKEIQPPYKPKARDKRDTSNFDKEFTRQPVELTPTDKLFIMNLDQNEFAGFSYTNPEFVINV

[25] = target: PKCBII (Homo sapiens, UniProt P05771); conditions: 1 µM, ATP at Km
[26] = target: PKCDELTA (Homo sapiens, UniProt Q05655); conditions: 1 µM, ATP at Km
[27] = target: PKCEPSILON (Homo sapiens, UniProt Q02156); conditions: 1 µM, ATP at Km
[28] = target: PRKCQ (Homo sapiens, UniProt Q04759); conditions: 1 µM, ATP at Km
[29] = target: PKCZETA (Homo sapiens, UniProt Q05513); conditions: 1 µM, ATP at Km
[30] = target: ROCK-I (Homo sapiens, UniProt Q13464); conditions: 1 µM, ATP at Km
Sequence of ROCK-I (Q13464 whole entry): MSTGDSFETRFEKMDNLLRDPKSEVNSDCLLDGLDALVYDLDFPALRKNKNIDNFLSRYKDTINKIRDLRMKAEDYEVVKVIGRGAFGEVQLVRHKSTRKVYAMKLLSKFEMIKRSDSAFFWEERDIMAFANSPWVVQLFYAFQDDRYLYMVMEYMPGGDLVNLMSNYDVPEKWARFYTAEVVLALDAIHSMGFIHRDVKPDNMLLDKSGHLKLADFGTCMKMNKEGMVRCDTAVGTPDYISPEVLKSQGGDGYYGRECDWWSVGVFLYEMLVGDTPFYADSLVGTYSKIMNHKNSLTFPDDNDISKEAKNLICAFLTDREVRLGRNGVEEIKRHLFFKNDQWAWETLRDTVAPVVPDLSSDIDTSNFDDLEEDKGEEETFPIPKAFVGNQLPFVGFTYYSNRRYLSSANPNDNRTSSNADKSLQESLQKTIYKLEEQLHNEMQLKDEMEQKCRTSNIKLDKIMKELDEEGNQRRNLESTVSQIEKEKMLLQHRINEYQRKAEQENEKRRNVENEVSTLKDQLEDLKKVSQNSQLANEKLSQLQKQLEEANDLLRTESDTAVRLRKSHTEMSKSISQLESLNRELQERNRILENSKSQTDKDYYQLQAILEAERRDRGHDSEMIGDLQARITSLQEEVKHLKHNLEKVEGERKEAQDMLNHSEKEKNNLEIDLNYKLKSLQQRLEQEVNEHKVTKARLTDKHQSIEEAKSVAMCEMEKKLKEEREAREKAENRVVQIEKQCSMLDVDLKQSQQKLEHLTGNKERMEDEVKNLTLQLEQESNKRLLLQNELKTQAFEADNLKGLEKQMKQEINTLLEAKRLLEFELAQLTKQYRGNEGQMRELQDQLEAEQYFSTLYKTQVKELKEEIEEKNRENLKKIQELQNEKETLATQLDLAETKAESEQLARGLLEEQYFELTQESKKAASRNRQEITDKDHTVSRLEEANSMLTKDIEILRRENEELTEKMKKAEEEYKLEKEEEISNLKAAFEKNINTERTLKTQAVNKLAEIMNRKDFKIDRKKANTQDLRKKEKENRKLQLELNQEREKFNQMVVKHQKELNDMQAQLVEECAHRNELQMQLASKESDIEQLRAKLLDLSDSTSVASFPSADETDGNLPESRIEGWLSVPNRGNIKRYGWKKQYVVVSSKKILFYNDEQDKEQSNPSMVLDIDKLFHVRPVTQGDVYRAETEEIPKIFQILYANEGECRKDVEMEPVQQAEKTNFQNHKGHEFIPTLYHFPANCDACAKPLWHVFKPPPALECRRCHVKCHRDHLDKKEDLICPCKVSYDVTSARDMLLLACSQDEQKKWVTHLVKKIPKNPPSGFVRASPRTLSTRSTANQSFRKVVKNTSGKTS

[31] = target: ROCK-II (Homo sapiens, UniProt O75116); conditions: 1 µM, ATP at Km
[32] = target: RSE (Homo sapiens, UniProt Q06418); conditions: 1 µM, ATP at Km
[33] = target: RSK2 (Homo sapiens, UniProt P51812); conditions: 1 µM, ATP at Km
[34] = target: SGK3 (Homo sapiens, UniProt Q96BR1); conditions: 1 µM, ATP at Km
[35] = target: WNK2 (Homo sapiens, UniProt Q9Y3S1); conditions: 1 µM, ATP at Km
[36] = target: ZIPK (Homo sapiens, UniProt O43293); conditions: 1 µM, ATP at Km
[37] = target: CK1GAMMA2 (Homo sapiens, UniProt P78368); conditions: 1 µM, ATP at Km
[38] = target: DCAMKL2 (Homo sapiens, UniProt Q8N568); conditions: 1 µM, ATP at Km
[39] = target: PHKGAMMA2 (Homo sapiens, UniProt P15735); conditions: 1 µM, ATP at Km
[40] = target: CLK3 (Homo sapiens, UniProt P49761); conditions: 1 µM, ATP at Km
[41] = target: MER (Homo sapiens, UniProt Q12866); conditions: 1 µM, ATP at Km
[42] = target: VRK2 (Homo sapiens, UniProt Q86Y07); conditions: 1 µM, ATP at Km
[43] = target: ACK1 (Homo sapiens, UniProt Q07912); conditions: 1 µM, ATP at Km
[44] = target: TXK (Homo sapiens, UniProt P42681); conditions: 1 µM, ATP at Km
[45] = target: IGF-1R, ACTIVATED (Homo sapiens, UniProt P08069); conditions: 1 µM, ATP at Km

Sequence of EPHA2 (P29317 24-976): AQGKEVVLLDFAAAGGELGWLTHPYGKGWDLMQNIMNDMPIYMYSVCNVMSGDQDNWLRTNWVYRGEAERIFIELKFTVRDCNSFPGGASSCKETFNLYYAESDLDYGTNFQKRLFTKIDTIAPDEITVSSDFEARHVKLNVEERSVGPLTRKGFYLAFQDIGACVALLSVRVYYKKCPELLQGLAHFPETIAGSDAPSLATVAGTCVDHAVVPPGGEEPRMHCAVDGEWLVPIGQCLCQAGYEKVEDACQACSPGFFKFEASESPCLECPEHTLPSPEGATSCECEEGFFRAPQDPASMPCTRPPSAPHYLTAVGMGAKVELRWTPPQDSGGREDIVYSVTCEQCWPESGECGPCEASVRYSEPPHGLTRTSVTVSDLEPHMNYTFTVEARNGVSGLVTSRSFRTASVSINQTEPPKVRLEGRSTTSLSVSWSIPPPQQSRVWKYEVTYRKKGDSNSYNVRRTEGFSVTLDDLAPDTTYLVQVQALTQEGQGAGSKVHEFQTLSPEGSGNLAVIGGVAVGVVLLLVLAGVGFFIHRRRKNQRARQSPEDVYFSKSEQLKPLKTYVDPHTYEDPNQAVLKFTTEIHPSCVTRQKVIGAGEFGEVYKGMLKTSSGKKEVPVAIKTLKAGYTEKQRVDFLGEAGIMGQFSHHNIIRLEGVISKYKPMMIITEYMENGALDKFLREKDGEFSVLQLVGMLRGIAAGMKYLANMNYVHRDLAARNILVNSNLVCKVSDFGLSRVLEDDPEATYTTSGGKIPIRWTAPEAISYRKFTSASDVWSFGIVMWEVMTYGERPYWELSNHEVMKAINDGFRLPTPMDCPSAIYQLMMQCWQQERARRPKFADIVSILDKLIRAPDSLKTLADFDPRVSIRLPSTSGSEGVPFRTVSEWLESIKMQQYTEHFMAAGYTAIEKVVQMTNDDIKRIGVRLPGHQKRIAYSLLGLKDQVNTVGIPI

`COC1CN(C(=O)c2ccc3c(N)ncc(-c4ccc(-c5cnn(C)c5)cc4)c3n2)C1` [Compound 51] gave an inhibition at 1 µM [1] of 54%, a percentage effect [2] of 21% and a percentage effect [3] of 0%. The percentage effect [4] was -45%, the percentage effect [5] was -12% and the percentage effect [6] was -1%. It also gave a percentage effect [7] of 7%, a percentage effect [8] of -3% and a percentage effect [9] of 19%. The percentage effect [10] was -9%, the percentage effect [11] was 19% and the percentage effect [12] was 2%. The percentage effect [13] was -4%, the percentage effect [14] was 2% and the percentage effect [15] was -1%. For the same compound, the percentage effect [16] was -13%, the percentage effect [17] was -11% and the percentage effect [18] was 0%. It also gave a percentage effect [19] of -3%, a percentage effect [20] of 7% and a percentage effect [21] of -2%. For the same compound, the percentage effect [22] was -12%, the percentage effect [23] was -4% and the percentage effect [24] was -1%. The percentage effect [25] was -4%, the percentage effect [26] was 4% and the percentage effect [27] was 14%. For the same compound, the percentage effect [28] was 5%, the percentage effect [29] was 4% and the percentage effect [30] was 32%. The percentage effect [31] was -2%, the percentage effect [32] was 17% and the percentage effect [33] was 6%. It also gave a percentage effect [34] of -13%, a percentage effect [35] of 18% and a percentage effect [36] of 25%. For the same compound, the percentage effect [37] was -24%, the percentage effect [38] was 0% and the percentage effect [39] was 10%. For the same compound, the percentage effect [40] was 2%, the percentage effect [41] was -3% and the percentage effect [42] was 4%. The percentage effect [43] was 0%, the percentage effect [44] was -13% and the percentage effect [45] was -18%.
`COC1CN(C(=O)c2ccc3c(N)ncc(-c4ccc(-c5cnn(C)c5)cc4)c3c2)C1` [Compound 59] was tested, and the inhibition at 1 µM [1] was 62%, the percentage effect [2] was 7% and the percentage effect [3] was -5%. For the same compound, the percentage effect [4] was 14%, the percentage effect [5] was 7% and the percentage effect [6] was 3%. The percentage effect [7] was 24%, the percentage effect [8] was -7% and the percentage effect [9] was 7%. The percentage effect [10] was -15%, the percentage effect [11] was 9% and the percentage effect [12] was 14%. The percentage effect [13] was -11%, the percentage effect [14] was -18% and the percentage effect [15] was 0%. For the same compound, the percentage effect [16] was -20%, the percentage effect [17] was -13% and the percentage effect [18] was -20%. The percentage effect [19] was -30%, the percentage effect [20] was -12% and the percentage effect [21] was -34%. For the same compound, the percentage effect [22] was 25%, the percentage effect [23] was -6% and the percentage effect [24] was 15%. The percentage effect [25] was -3%, the percentage effect [26] was 0% and the percentage effect [27] was 8%. It also gave a percentage effect [28] of -12%, a percentage effect [29] of -13% and a percentage effect [30] of 2%. For the same compound, the percentage effect [31] was -12%, the percentage effect [32] was -6% and the percentage effect [33] was 0%. It also gave a percentage effect [34] of 9%, a percentage effect [35] of -3% and a percentage effect [36] of -5%. The percentage effect [37] was -9%, the percentage effect [38] was 0% and the percentage effect [39] was 2%. The percentage effect [40] was -19%, the percentage effect [41] was -4% and the percentage effect [42] was -3%. It also gave a percentage effect [43] of -10%, a percentage effect [44] of -7% and a percentage effect [45] of -10%.

From PMC4904262 (ACS Medicinal Chemistry Letters, 2016)
